Structure (SMILES)	melting point [°C]
Nc1cccc2cc3ccccc3nc12	108
NC(=O)C12CC3CC(CC(C3)C1)C2	189
CCC1(c2cccc(O)c2)CCCCN(C)C1=O (stereo not given)	172 to 176
O=C(C(C(=O)N1CCOCC1)c1ccccc1)N1CCOCC1	187
O=C(O)Cc1ccccc1Oc1ccc(Cl)cc1Cl	112
CN1C2CC(=O)CC1C(O)C2 (stereo not given)	120 to 123
COc1ccccc1P(c1ccccc1OC)c1ccccc1OC	204 to 208
O=C1c2ccccc2C(=O)C1(O)O	250
COc1ccc(C2C(C#N)=C(N)Oc3cc(C)n(CCc4ccccc4)c(=O)c32)cc1 (stereo not given)	264
CC(C)(C)OC(=O)N[C@H](Cc1ccc(F)cc1)C(=O)O	130
CSC(S)=NCc1ccc(CN)cc1	152 to 153
Cc1onc(-c2ccccc2Cl)c1C(=O)Cl	42
O=C(O)c1cc(O)c2cccc(O)c2n1	297 to 298
CC(C)=CCCC(C)=CC=CC(C)=CC=CC(C)=CC=CC=C(C)C=CC=C(C)C=CC=C(C)CCCC(C)(C)O	171
ClCc1csc(-c2ccc(Cl)cc2)n1	78 to 79
NC(=O)CC[C@H](NC(=O)OCc1ccccc1)C(=O)O	135 to 137
Nc1ccc(C(F)(F)F)cn1	47
O=C(CNC(=O)OCC1c2ccccc2-c2ccccc21)Oc1c(F)c(F)c(F)c(F)c1F	159 to 160
S=c1cc[nH]c(=S)[nH]1	279 to 281
NC(=O)CSSCC(N)=O	162
C(=C(\Oc1ccccc1)c1nc2ccccc2s1)/c1ccc2c(c1)OCO2	170
FC(F)(F)C(F)(F)C(F)(F)I	-95
O=C(Nc1ccc(Cl)cc1)Nc1ccc(Cl)c(Cl)c1	256
Cc1c(O)cccc1[N+](=O)[O-]	150
CC12CCC(C(=O)/C(=N\O)C1=O)C2(C)C (stereo not given)	109

Structure (SMILES)	melting point [°C]
Cc1cc([N+](=O)[O-])cc(C)c1O	164 to 169
O=C(Nc1ccccc1)OCc1c([N+](=O)[O-])cccc1[N+](=O)[O-]	138
COc1ccc2c(c1)CCC1C2CCC2(C)C(=O)C(Cl)CC12 (stereo not given)	180
NS(=O)(=O)c1ccc(SCCCO)c([N+](=O)[O-])c1	163
CC(O)(c1ccc(Cl)cc1)c1ccc(Cl)cc1	70
O=[N+]([O-])c1ccccc1/C=C/c1nc2ccccc2[nH]1	215
O=Cc1ccc(N2CCOCC2)s1	126 to 128
CC(=O)C(=NNc1ccc(Br)cc1)C(C)=O	132
COc1c(Cl)cccc1Cl	10 to 11
CSCCC(NC(=O)c1ccc(C(F)(F)F)cc1)C(=O)NN (stereo not given)	181 to 184
CCCCC(=O)OC(=O)CCCC	-56.1
c1cnc(N2CCN(Cc3ccc4c(c3)OCO4)CC2)nc1	98
Brc1ccc2c(c1)CCO2	49 to 50
Nc1ncccc1C(=O)O	295 to 297
Cc1cncc(N2CCNCC2)n1	49 to 51
CC(C)(C)OC(=O)N1CCN(Cc2ccc(C=O)cc2)CC1	57 to 59
COc1ccc2c(c1)CCc1c-2[nH]c2ccc(OC)cc12	194 to 196
CC(CCc1ccccc1)NCC(O)c1ccc(O)c(C(N)=O)c1 (stereo not given)	190
CC1(C)CCC(C)(C)c2cc(S(=O)(=O)Cl)ccc21	78 to 80
CC(=O)c1nn2c(nc(=O)c3ccccc32)s1	199
CSc1nc(N)nc(-c2ccccn2)n1	193 to 196
CCN(CC)C(=O)C(C)Oc1cccc2ccccc12 (stereo not given)	75
CC(C)N(C(=O)CCl)c1ccccc1	77
CN(C)CCN	-70
Cc1ccc(N2C(=O)C3ON=C(C(=O)c4cccs4)C3C2=O)cc1 (stereo not given)	160

Structure (SMILES)	melting point [°C]
O=C(Oc1c(F)c(F)c(F)c(F)c1F)c1ccc(-c2cnco2)cc1	141 to 143
COC(=O)c1c(C)c2c(c(C(=O)OC)c1C)CC2=O	117
CCOC(=O)c1sc(-c2ccc(C)cc2)nc1O	128 to 130
Clc1c(Cl)c(Cl)c(C(Cl)Cl)c(Cl)c1Cl	120
CCC1(O)CCCCC1	34.5
CC1CN(c2ccccc2)NC1=O (stereo not given)	133 to 136
CN(C)CC(O)Cn1c2ccc(Br)cc2c2cc(Br)ccc21 (stereo not given)	153 to 154
c1ccc(CCCc2ccccc2)cc1	6
NC(Cn1ccc(=O)c(O)c1)C(=O)O (stereo not given)	228
CC(=O)OC1CC2C(CCC3(C)C(C(C)CCCC(C)C)CCC23)C2(C)CCC(=O)C=C12 (stereo not given)	101 to 102
O=C(Nc1cccc([N+](=O)[O-])c1)C(C(F)(F)F)C(F)(F)F	200
NS(=O)(=O)c1ccc(N2C(=O)CC(c3ccccc3)C2=O)c(Cl)c1 (stereo not given)	206
Cc1ccc(O)cc1	35.5
NCC(c1ccccc1)c1ccccc1	43 to 49
N#Cc1cnn2c(C(F)(F)F)cc(C(F)(F)F)nc12	75 to 77
CC(C)C1CCCCC1=O (stereo not given)	72.5
NC(=O)NC1NC(=O)NC1=O (stereo not given)	238
Cc1cccc(C(=O)Cl)c1	-23
FC(F)(F)c1nnc(S)n1-n1cccc1	165
O=C(O)c1cccc(F)c1C(=O)O	171 to 175
Cc1ccc(-c2onc(C(=O)c3ccc4ccccc4c3)c2S(=O)(=O)c2ccccc2)cc1	108
COc1ccc(C(=O)CBr)c(OC)c1	104
CN1COCc2c1ccc1cc3ccc(N)c(CO)c3nc21	235
NS(=O)(=O)c1cc(Cl)c(Cl)c(S(N)(=O)=O)c1	229
Cc1ccc(S(C)(=O)=O)cc1[N+](=O)[O-]	121

Structure (SMILES)	melting point [°C]
COC(=O)CC(CC(=O)OC)(c1cc(C)c(O)c(C)c1)c1cc(C)c(O)c(C)c1	199
S=C=Nc1cccc2nsnc12	88 to 89
CCP(=O)(c1ccccc1)c1ccccc1	122
CCN(Cc1ccccc1)c1ccccc1	35
O=Cc1cccn1S(=O)(=O)c1ccccc1[N+](=O)[O-]	139 to 141
CC(C)(C)OC(=O)N[C@@H](Cc1ccc(Cl)cc1Cl)C(=O)O	132
Cc1ccc(C(c2ccc(C)o2)c2ccccc2C#N)o1	87
O=C(O)C(O)n1ccnc1 (stereo not given)	275
c1ccc(Cc2ccc3c4ccccc4c4ccccc4c3c2Cc2ccccc2)cc1	178
CNC(=O)CCl	46
O=C(O)C(Br)C(Br)C(=O)O (stereo not given)	275
CNc1ccccc1OC	30 to 33
CCOC(=O)C(C#N)=C1CC(SC)=C(C(=O)OCC)C(=N)N1c1ccc(OC)cc1	172
CCOC(=O)CCC(=O)O	8
Cc1ccc2nc(C)[nH]c2c1	203
OCCN1CCN(Cc2ccc(F)cc2)CC1	55 to 56
CC(=O)OC[C@@H](OC(C)=O)[C@@H](OC(C)=O)[C@H](OC(C)=O)[C@@H](OC(C)=O)C(=O)O	109 to 111
CC(C)OC(=O)N=NC(=O)OC(C)C	3 to 5
N#Cc1ccc(-c2nccs2)cc1	102 to 103
Cc1csc(N)c1C(N)=O	174
C[C@]1(O)C#CCCCCC#C[C@](C)(O)CC1	144
O=C(O)COc1ccccc1O	128
O=C=Nc1ccc(Oc2ccc(N=C=O)cc2)cc1	62 to 66
COc1ccc2cc(Br)ccc2c1CC#N	147 to 148
CC(C)COC(=O)CCCCC(=O)OCC(C)C	-20

Structure (SMILES)	melting point [°C]
O=C1OC(=O)C2=C1Cc1cc3c(cc1C2)CC3	254
CC(C)(SC(=O)N1CCCCC1)c1ccccc1	39.1
Cc1cc(-c2onc(C)c2C(=O)Cl)no1	57
O=C(O)c1cc2cc(OC(F)(F)F)ccc2[nH]1	204 to 207
CC1(C)OC(c2ccco2)CN1C(=O)C(Cl)Cl (stereo not given)	97
CNC(=C[N+](=O)[O-])NCCSCc1csc(CN(C)C)n1	203
CC(=O)Nc1ccc(N(Nc2ccccc2)C(C)=O)cc1	199
CC(O)CC(C)(C)O (stereo not given)	-40
Nc1ccc(Sc2ccc(N)cc2)cc1	108
Cc1nc2scc(-c3ccccc3)c2c(=O)n1NC(=O)c1ccc(Cl)cc1	235 to 236
CC(C)(C)c1cc(C(C)(C)c2ccc(O)c(C(C)(C)C)c2)ccc1O	114
CC[C@@]1(O)CC[C@H]2[C@@H]3CCC4CC(OC(C)=O)CC[C@]4(C)[C@H]3CC[C@@]21C (stereo not given in full)	164 to 165
NCC(O)c1ccc(O)c(O)c1 (stereo not given)	217
Cc1cc(C)nc(NS(=O)(=O)c2ccc(N)cc2)n1	200
Cc1noc(C)c1-c1nc(CCl)no1	88 to 90
CNCc1c(C)nc2ccccn12	73 to 75
Cc1cc(N=Nc2ccccc2)c(C(C)C)cc1[N+]([O-])=Nc1ccccc1	118
CC(=O)SCC(C)C(=O)O (stereo not given)	5
CCOC(=O)c1c(=S)ncn2c1[nH]c1ccccc12	194 to 198
Nc1nccc(-c2ccncc2)n1	81.3
CC=NNc1ccc([N+](=O)[O-])cc1[N+](=O)[O-]	166
C=CCNC(=O)C(O)C(O)C(=O)NCC=C (stereo not given)	182 to 186
O=[N+]([O-])c1ccc(C=Cc2ccc(C=Cc3ccc([N+](=O)[O-])cc3[N+](=O)[O-])cc2)c([N+](=O)[O-])c1	294
O=C1OC(c2ccccc2)=N/C1=C\c1ccc(Br)o1	122
CSc1sc(C(N)=S)c2c1C(=O)CCC2	232 to 233

From a melting point compilation (Tetko et al.)
